Laboratory results from PubChem BioAssay (NCI).
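Grown in 96-well plates, cells were treated for 48 hours with each compound at five concentrations. Insufficient inhibition: endpoint recorded as highest concentration tested. GI50: concentration for 50% inhibition of growth. The concentration for full growth arrest is given as TGI.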

Experiments:
Assay in all cases: NCI anticancer screen, dose series, 48 h
[1] = system: UACC-257 melanoma
[2] = system: OVCAR-4 ovarian
[3] = system: SK-MEL-28 melanoma
[4] = system: CCRF-CEM leukemia
[5] = system: M14 melanoma
[6] = system: ACHN renal
[7] = system: HOP-92 NSCLC
[8] = system: NCI-H226 lung
[9] = system: HCT-15 colon
[10] = system: SR leukemia

Structure (SMILES)	TGI [1]	TGI [2]	TGI [3]	TGI [4]	TGI [5]	TGI [6]	TGI [7]	TGI [8]	TGI [9]	TGI [10]	GI50 [1]	GI50 [2]	GI50 [3]	GI50 [4]	GI50 [5]	GI50 [6]	GI50 [7]	GI50 [8]	GI50 [9]	GI50 [10]
Cc1cccc(C)c1N1C(=O)C(=O)C(c2nc3ccccc3s2)/C(=N/NC(=O)c2ccccc2O)C1=O (stereo not given)	68.2 µM	> 100 µM	> 83.1 µM	> 65.3 µM	> 100 µM	> 89.4 µM	> 67.5 µM	56.5 µM	> 100 µM	86.3 µM										
Cc1nc2ccccn2c1NC(=O)NNC(=S)Nc1ccc(F)cc1	> 100 µM	> 100 µM	> 100 µM	> 100 µM	> 100 µM	> 100 µM	> 100 µM	> 100 µM	> 100 µM	> 100 µM	> 100 µM	> 100 µM	> 100 µM	> 100 µM	> 100 µM	> 100 µM	> 100 µM	> 100 µM	> 100 µM	19.5 µM
C=C1SC(=Nc2ccccc2Cl)N(C(=O)c2sc3ccccc3c2Cl)C12CCCCC2	> 100 µM	> 100 µM	> 100 µM	> 100 µM	> 100 µM	> 100 µM	9.31 µM	> 100 µM	> 100 µM	> 100 µM	23.6 µM	7.75 µM	> 100 µM	5.41 µM	45.1 µM	4.89 µM	2.01 µM	40 µM	5.45 µM	8.54 µM
